Reference: paper PMC5866590 (Proceedings of the National Academy of Sciences of the …, 2018)
Where two headings read alike, the source gives them in different places.

Biological target: T1, FmlHLD (Escherichia coli, UniProt Q1RBS0)
T1 sequence (Q1RBS0 25-184): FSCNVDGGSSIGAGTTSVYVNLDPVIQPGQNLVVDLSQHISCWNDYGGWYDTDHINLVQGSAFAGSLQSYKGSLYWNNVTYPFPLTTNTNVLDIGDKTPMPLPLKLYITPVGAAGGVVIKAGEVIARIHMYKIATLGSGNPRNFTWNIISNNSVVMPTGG
Format: binding, Escherichia coli (UPEC strain UTI89)
Conditions: for Percent inhibition (PI100) of FmlHLD binding to ds-BSM: mean with SEM in Table S2

[1] = Fig. 1B: 1 mM or 0.1 mM compounds

With `CC(=O)N[C@H]1C(O)O[C@H](CO)[C@H](O)[C@@H]1O` (mixture of isomers) [GalNAc, N-acetylgalactosamine, reference compound] the “Inhibition of FmlHLD binding to ds-BSM (in words)” value (from here on “Inhibition of FmlHLD binding”) (compound at 1 mM) was “capable of inhibiting FmlHLD”.
With `O=c1c(O[C@@H]2O[C@H](CO)[C@H](O)[C@H](O)[C@H]2O)c(-c2ccc(O)c(O)c2)oc2cc(O)cc(O)c12` [26β, quercetin galactoside] the “Percent inhibition (PI100) of FmlHLD binding to ds-BSM” value (shortened to “Percent inhibition (PI100)”) (compound at 100 μM, 100 µM) was 14%.
For `CC(C)S[C@@H]1O[C@H](CO)[C@H](O)[C@H](O)[C@H]1O` [36β-thio, isopropyl β-thiogalactoside, reference compound], the “Inhibition of FmlHLD binding” value (compound at 100 μM) was “minor inhibitory activity”.
With `OC[C@H]1O[C@@H](Oc2cc3c(O)cc(O)cc3[o+]c2-c2ccc(O)c(O)c2)[C@H](O)[C@@H](O)[C@H]1O` [24β, cyanidin galactoside] the “Percent inhibition (PI100)” value (compound at 100 μM, 100 µM) was 29%.
For `OC[C@H]1O[C@@H](O[C@H]2[C@H](O)[C@@H](O)C(O)O[C@@H]2CO)[C@H](O)[C@@H](O)[C@H]1O` (stereo partly drawn) [Lac, Gal(β1-4)Glc, reference compound], the “Inhibition of FmlHLD binding” value [1] was “incapable of inhibiting FmlHLD”.
For `CC(=O)N[C@@H]1[C@@H](O[C@@H]2O[C@H](CO)[C@H](O)[C@H](O)[C@H]2O)[C@@H](O)[C@@H](CO)O[C@@H]1O` [TF, Gal(β1-3)GalNAc(α), reference compound], the “Inhibition of FmlHLD binding” value (compound at 1 mM) was “capable of inhibiting FmlHLD”.
In the case of `O=c1ccc2nc3ccc(O[C@@H]4O[C@H](CO)[C@H](O)[C@H](O)[C@H]4O)cc3oc-2c1` [15β], the “Percent inhibition (PI100)” value (compound at 100 μM, 100 µM) is reported as 80%.
With `COc1cc(-c2[o+]c3cc(O)cc(O)c3cc2O[C@@H]2O[C@H](CO)[C@H](O)[C@H](O)[C@H]2O)ccc1O` [25β] the “Percent inhibition (PI100)” value (compound at 100 μM) was 3.6%.
For `OC[C@H]1O[C@@H](Oc2ccccc2)[C@H](O)[C@@H](O)[C@H]1O` [1β, phenyl β-galactoside], the “Percent inhibition (PI100)” value (compound at 100 μM, 100 µM) was 77%.
`OC[C@H]1OC(O)[C@@H](O)[C@@H](O)[C@@H]1O` (stereo partly drawn) [Man, mannose, reference compound] was tested, and the “Inhibition of FmlHLD binding” value [1] was “neither Man nor glucose (Glc) had any detectable effect”.
`O=C[C@H](O)[C@@H](O)[C@@H](O)[C@H](O)CO` [Gal, galactose, reference compound] was tested, and the “Inhibition of FmlHLD binding” value (compound at 1 mM) was “capable of inhibiting FmlHLD”.
In the case of `OC[C@H]1OC(O)[C@H](O)[C@@H](O)[C@@H]1O` (stereo partly drawn) [Glc, glucose, reference compound], the “Inhibition of FmlHLD binding” value [1] is reported as “neither Man nor glucose (Glc) had any detectable effect”.
